Molecules are shown by their SMILES. Where “and” joins values, the source holds several entries; their conditions need not be identical. Equal values may be shown once. Read-outs that look alike come from different tables or passages of the source.

Series [1] deals with L. mexicana (promastigotes). On the set-up: method as in PMID 20430484, PMID 15183913, PMID 18486471. The settings on record: Figure 3; cited from earlier work.
In series [2] the test system is L. donovani (promastigotes). Details: method as in PMID 20430484, PMID 15183913, PMID 18486471. The settings on record: Figure 3; cited from earlier work.
Series [3] relates to L. mexicana (amastigotes). On the set-up: method as in PMID 20430484, PMID 15183913, PMID 18486471. The settings on record: Figure 3; cited from earlier work.
The subject of series [4] is L. infantum promastigotes. The experiment in a line: Antileishmanial activity on L. infantum promastigotes (MTT). The class given is cell-based, Leishmania infantum. The conditions noted are these: for IC50: Leishmania infantum.
The test system of series [5] is human microvascular endothelial cell line (HMEC-1). In words: Cytotoxicity on HMEC-1 cells (MTT). The class given is cell-based. The conditions noted are these: for IC50: Homo sapiens, cytotoxicity, HMEC-1 cells, MTT.
The subject of series [6] is promastigote stage of L. infantum. The conditions noted are these: read-out: IC50 of miltefosine versus promastigote stage of L. infantum, literature, cited from earlier work.
The subject of a further series is L. tropica promastigotes. In words: Antileishmanial activity on L. tropica promastigotes (MTT). The class given is cell-based, Leishmania tropica. The settings on record: for IC50: Leishmania tropica.
The test system of another series is L. major (promastigotes). On the set-up: method as in PMID 20430484, PMID 15183913, PMID 18486471. The settings on record: Figure 3; cited from earlier work.
Series [7] concerns serum cholesterol concentration. Details: method as in ref 21 = [21]; 21 (a) Sparatore F , Boido V , Fanelli F. Dialkylaminoalkylbenzimi-dazoles of pharmacological interest . Farmaco Sci 1968; 23 : 344 – 59 . (b) Paglietti G , Sparatore F. Dialkylaminoalkyl-benzimidazo. The conditions noted are these: hypercholesterolemic mice, 50 mg/kg p.os; cited from earlier work.
In series [8] the test system is 24 human cancer cell lines. On the set-up: method as in ref 25b = [25]; 25 (a) Novelli F , Tasso B , Sparatore F. Synthesis and biological investigations of 2-(tetrahydropyran-2'-yl) and 2-(tetrahydrofuran-2'-yl)benzimidazoles . Farmaco 1997; 52 : 499 – 507 . (b) Tonelli. The conditions noted are these: ref 25b; read-out: GI50 against 24 human cancer cell lines; cited from earlier work.

Series [9] relates to intramacrophagic amastigote stage of L. infantum. The experiment in a line: In vitro intracellular amastigote susceptibility assay in THP-1 macrophages. The class given is cell-based, Leishmania infantum. How it is done: (b) In vitro intracellular amastigote susceptibility assays. […] Cell monolayers were then washed and incubated with compounds for 72 h. Slides were fixed with methanol and stained with Giemsa. The percentage of infected macrophages in treated and non-treated cells was determined by light microscopy.

The next series is described as follows: in vitro. The conditions noted are these: monkey.
Series [10] concerns respiratory syncytial virus (RSV). On the set-up: method as in ref 24c = [24]; 24 (a) Tonelli M , Paglietti G , Boido V , et al Antiviral activity of benzimidazole derivatives. I. Antiviral activity of 1-substituted-2-[(benzotriazol-1/2-yl)methyl]benzimidazoles . Chem Biodivers. The conditions noted are these: ref 24c; cited from earlier work.
For series [11], the system named is Coxsackie virus B5 (CVB-5). Details: method as in ref 24c = [24]; 24 (a) Tonelli M , Paglietti G , Boido V , et al Antiviral activity of benzimidazole derivatives. I. Antiviral activity of 1-substituted-2-[(benzotriazol-1/2-yl)methyl]benzimidazoles . Chem Biodivers. The conditions noted are these: ref 24c; cited from earlier work.
The subject of series [12] is renal cancer cell line UO31. Details: method as in ref 25b = [25]; 25 (a) Novelli F , Tasso B , Sparatore F. Synthesis and biological investigations of 2-(tetrahydropyran-2'-yl) and 2-(tetrahydrofuran-2'-yl)benzimidazoles . Farmaco 1997; 52 : 499 – 507 . (b) Tonelli. The settings on record: ref 25b; cited from earlier work.
Series [13] relates to monkey kidney (Vero76) cells. In words: Cytotoxicity on Vero-76 cells (crystal violet).
The mark [14] stands for this setting: promastigotes, MTT, 72 h, read-out: IC50 (µM) L. infantum.
[15] abbreviates: fold potency versus miltefosine.
Where [16] appears, read: percent of amphotericin B potency, calculated for each experiment.
[17] abbreviates: 72 h, promastigotes, MTT, 72 h, starred values mean of two experiments, read-out: IC50 (µM) L. tropica.

As to `N=C(N)c1ccc(OCCCCCOc2ccc(C(=N)N)cc2)cc1` [pentamidine], the IC50 (in general, the midpoint of a concentration-inhibition curve) was 2.42 µM in series [1]; 2.2 µM and 2.87 µM in series [2]; 9.57 µM in series [3].
Consider `CCCCCCCCCCCCCCCCOP(=O)([O-])OCC[N+](C)(C)C` [Miltefosine, miltefosine, reference compound], for which the IC50 in series [4] (setting [14]) was 31.3 ± 10.4 µM; in series [5], 99.8 µM; in [6] (ref 6c) it was 16.7 µM; in [6] (ref 11a) it was 15 µM; in series [6] (ref 13b), 19.6 µM; in the series on L. tropica promastigotes (setting [17]), 43 µM. Also, the “Ratio IC50 miltef./IC50 compd., L. infantum” value in series [4] (setting [15]) is listed as 1.0. In series [4] (setting [16]), the “IC50 amph. B ×100/IC50 compd., L. infantum” value is 0.27. For the same molecule, the “SI L. infantum (IC50 HMEC-1/IC50 L. infantum)” value in series [5] (selectivity index, HMEC-1) is reported as 3.2. Besides, the “Ratio IC50 miltef./IC50 compd., L. tropica” value in the series on L. tropica promastigotes (setting [15]) amounted to 1.0. Further, in the series with L. tropica promastigotes (setting [16]), the “IC50 amph. B ×100/IC50 compd., L. tropica” value is 0.26.
Regarding `C[C@@H]1[C@H](O)[C@@H](C)/C=C/C=C/C=C/C=C/C=C/C=C/C=C/[C@H](O[C@@H]2O[C@H](C)[C@@H](O)[C@H](N)[C@@H]2O)C[C@@H]2O[C@](O)(C[C@@H](O)C[C@@H](O)[C@H](O)CC[C@@H](O)C[C@@H](O)CC(=O)O[C@H]1C)C[C@H](O)[C@H]2C(=O)O` [Amph. B, amphotericin B, reference compound], the IC50 in series [4] (setting [14]) was 0.135 ± 0.03 µM; in series [4] (range of values across experiments, read-out: IC50 range over many different experiments, L. infantum), 0.094 to 0.209 µM; in series [5], 25.7 ± 1.9 µM; with L. tropica promastigotes (setting [17]), 0.113 ± 0.03 µM; in the series with L. tropica promastigotes (range of values across experiments, read-out: IC50 range over many different experiments, L. tropica) it was 0.082 to 0.177 µM; with L. major (promastigotes), 0.61 µM. In addition, the “IC50 amph. B ×100/IC50 compd., L. infantum” value in series [4] (setting [16]) was 100. The “SI L. infantum (IC50 HMEC-1/IC50 L. infantum)” value in [5] (selectivity index, HMEC-1) amounted to 190.4. Further, in [5] (selectivity index, HMEC-1), the “SI L. tropica (IC50 HMEC-1/IC50 L. tropica)” value came to 227.4. In addition, in the series with L. tropica promastigotes (setting [16]), the “IC50 amph. B ×100/IC50 compd., L. tropica” value is recorded as 100.
For `CCN(CC)CCCn1c(Cc2ccc(Cl)cc2)nc2cc(C(F)(F)F)ccc21` [2-(4-chlorobenzyl)-1-(3-diethylaminopropyl)-5-trifluoromethylbenzimidazole], the “Reduction of serum cholesterol concentration” value in series [7] is on record as above 15%.
For the molecule `FC(F)(F)c1ccc2c(c1)nc(Cc1ccc(Cl)cc1)n2C[C@@H]1CCCN2CCCC[C@H]12` [Compound 28, 2-(4-chlorobenzyl)-1-lupinyl-5-trifluoromethylbenzimidazole], the GI50 – broadly, the concentration at which growth is held to half of that of the control – was below 5 µM in series [8] and 0.019 µM in [12]. The “Reduction of the amastigote infection of THP-1 cells” value in [9] (2 μM concentration) is given as 33.2%. Also, the IC50 in series [9] (Leishmania infantum, THP-1 macrophages, 72 h, read-out: IC50 against intramacrophagic amastigote stage of L. infantum) was above 2 µM; in “in vitro”, above 100 µM; in series [4] (setting [14]), 4.76 ± 1.6 µM; in series [5], 16.9 µM; in the series on L. tropica promastigotes (setting [17]), 3.7 ± 1.19 µM. Besides, the “IC50 amph. B ×100/IC50 compd., L. infantum” value in series [4] (setting [16]) is reported as 4.4. Moreover, the figures for the EC50 in [10] and in series [11] were 15 µM and 13 µM, respectively. Moreover, the “IC50 amph. B ×100/IC50 compd., L. tropica” value in the series with L. tropica promastigotes (setting [16]) is 4.8.
As for `COc1ccc(Cc2nc3cc([N+](=O)[O-])ccc3n2C[C@@H]2CCCN3CCCC[C@H]23)cc1` [Compound 34], in [13], the “SI L. infantum (IC50 Vero76/IC50 L. infantum)” value came to 7.33 and the “SI L. tropica (IC50 Vero76/IC50 L. tropica)” value turned out to be 14.24. The same molecule gave an IC50 in the series “in vitro” of 49 µM. Moreover, in series [4], the “IC50 amph. B ×100/IC50 compd., L. infantum” value is reported as 1.77 and the “Ratio IC50 miltef./IC50 compd., L. infantum” value was 4.7. In series [4] (72 h, read-out: IC50 (µM) L. infantum), the IC50 was 6.68 ± 1.74 µM. In the series with L. tropica promastigotes, the “IC50 amph. B ×100/IC50 compd., L. tropica” value is 2.99 and the “Ratio IC50 miltef./IC50 compd., L. tropica” value is on record as 12.6. Besides, the IC50 in the series on L. tropica promastigotes (72 h, read-out: IC50 (µM) L. tropica) was determined as 3.44 ± 1.43 µM.

Source of the values: publication PMC7011974, “Benzimidazole derivatives endowed with potent antileishmanial activity” (Journal of Enzyme Inhibition and Medicinal Chemistry, 2017).
